Structures can show the parent of a compound that is named as a salt.

One assay deals with T1, TDO in A172 cells (Homo sapiens, UniProt P48775).
T1 construct: endogenous in cells; host or cells: A172 cells
Briefly: TDO cell-based assay, kynurenine production in A172 cells. The settings on record: A 172; final concentration of the compound 10 μM; rate relative to culture without compound. In a few lines: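 A172 cells were preincubated with compound for 1 h, then given L-tryptophan (final 524 μM) for 24 h at 37 °C. Kynurenine was read at 460 nm after p-dimethylbenzaldehyde/TCA reagent, background-subtracted, and expressed as % of no-compound production.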

In assay [1] the target is rhIDO (recombinant human IDO) (Homo sapiens, UniProt P14902). Nature of the assay: Enzyme assay using rhIDO (rate of kynurenine production). In kind it is biochemical. To be noted: 2 h, read-out: rhIDO-mediated kynurenine production; for remaining activity at 10 µM: final concentration of the compound 10 μM, rate relative to reaction without compound. The procedure, abridged: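 Kynurenine formation, expressed as % of uncompounded reaction after background subtraction, was read by absorbance at 490 nm following TCA stop, 50 °C hydrolysis and Ehrlich-type p-dimethylbenzaldehyde staining. Recombinant human IDO with ascorbate/methylene blue/catalase was pre-exposed to compound 10 min, then reacted 120 min at 37 °C after adding 2 mM tryptophan stock.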

Another assay concerns the target T2, IDO in A431 cells (Homo sapiens, UniProt P14902).
T2 construct: endogenous in cells; host or cells: A431 cells, IFN-γ stimulated
Briefly: IDO cell-based assay, kynurenine production in IFN-γ stimulated A431 cells. The settings on record: A-431, 24 h; final concentration of the compound 10 μM; rate relative to culture without compound. The procedure, abridged:
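Kynurenine output was read by absorbance at 460 nm after p-dimethylbenzaldehyde/trichloroacetic acid reagent, background-corrected, and given as % of untreated wells. Before the read, cells in 178 μM L-tryptophan medium had 1 h compound preincubation, then 24 h IFN-γ stimulation (added as 100 ng/mL dilution).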

Assay [2] concerns the target rhTDO (recombinant human TDO) (Homo sapiens, UniProt P48775). Nature of the assay: Enzyme assay using rhTDO (rate of kynurenine production). In kind it is biochemical. The settings on record: 2 h; final concentration of the compound 10 μM; rate relative to reaction without compound; read-out: rhTDO-mediated kynurenine production. The procedure, abridged: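 Kynurenine output, as percent of untreated control after background subtraction, read at 490 nm with p-dimethylbenzaldehyde following TCA quench and 15 min heating at 50 °C. Reaction: rhTDO with compound, 10 min preincubation then 120 min at 37 °C, started by 20 mM tryptophan stock, in phosphate/ascorbate/methylene blue/catalase.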

T1 sequence (P48775 whole entry): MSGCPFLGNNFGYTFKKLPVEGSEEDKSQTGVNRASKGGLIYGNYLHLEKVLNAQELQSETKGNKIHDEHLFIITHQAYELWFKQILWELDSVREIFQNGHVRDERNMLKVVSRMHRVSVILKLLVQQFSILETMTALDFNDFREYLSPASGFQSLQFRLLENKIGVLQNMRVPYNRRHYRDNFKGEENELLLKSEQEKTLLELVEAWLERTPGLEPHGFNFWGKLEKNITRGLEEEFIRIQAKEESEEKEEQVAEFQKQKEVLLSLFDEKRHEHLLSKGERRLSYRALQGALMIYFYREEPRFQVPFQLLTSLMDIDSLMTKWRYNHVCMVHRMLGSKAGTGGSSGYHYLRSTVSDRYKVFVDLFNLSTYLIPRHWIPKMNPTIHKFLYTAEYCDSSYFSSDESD
Chain of rhTDO (recombinant human TDO) (P48775 whole entry): as above
T2 sequence (P14902 whole entry): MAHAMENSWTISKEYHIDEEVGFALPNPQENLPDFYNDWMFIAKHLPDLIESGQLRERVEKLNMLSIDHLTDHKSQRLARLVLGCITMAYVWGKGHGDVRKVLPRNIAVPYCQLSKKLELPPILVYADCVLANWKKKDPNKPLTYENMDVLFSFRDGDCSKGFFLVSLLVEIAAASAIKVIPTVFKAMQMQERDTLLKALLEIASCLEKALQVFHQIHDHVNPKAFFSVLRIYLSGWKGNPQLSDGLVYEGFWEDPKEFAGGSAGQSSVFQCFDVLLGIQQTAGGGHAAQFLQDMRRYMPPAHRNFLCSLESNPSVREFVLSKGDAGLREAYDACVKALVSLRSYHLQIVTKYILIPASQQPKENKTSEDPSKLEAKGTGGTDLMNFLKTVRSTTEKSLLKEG
Chain of rhIDO (recombinant human IDO) (P14902 whole entry): as above

As to `N=C(N)SCc1ccccc1CC(=O)NCCc1ccc(Cl)c(Cl)c1` [Compound 70, 2-(2-((3,4-Dichlorophenethyl)amino)-2-oxoethyl)benzyl carbamimidothioate hydrobromide], the remaining activity at 10 µM was found to be 96% at TDO in A172 cells, 72% in assay [1], 98% at IDO in A431 cells and 35% in assay [2].

Turning to `FC(F)(F)c1ccc(CSC2=NCN(CCc3ccccc3Cl)CN2)c(CSC2=NCN(CCc3ccccc3Cl)CN2)c1` [Compound 48, 6,6′-(((4-(Trifluoromethyl)-1,2-phenylene)bis(methylene))bis(sulfanediyl))bis(3-(2-chlorophenethyl)-1,2,3,4-tetrahydro-1,3,5-triazine)], the remaining activity at 10 µM on TDO in A172 cells was 71%; in assay [1], 80%; on IDO in A431 cells, 63%; in assay [2] it was 73%.

Turning to `N=C(N)SCc1cc(Br)ccc1C(=O)NCc1ccc(C(F)(F)F)cc1` [Compound 114, 5-Bromo-2-((4-(trifluoromethyl)benzyl)carbamoyl)benzyl carbamimidothioate hydrobromide], the remaining activity at 10 µM was determined as 37% at TDO in A172 cells, 98% in assay [1], 17% on IDO in A431 cells and 36% in assay [2].

Turning to `N#Cc1ccc(CNC(=O)c2cccc(Br)c2CSC(=N)N)cc1` [Compound 111, 2-Bromo-6-((4-cyanobenzyl)carbamoyl)benzyl carbamimidothioate hydrobromide], the remaining activity at 10 µM on TDO in A172 cells amounted to 87%; in assay [1], 17%; on IDO in A431 cells, 53%; in assay [2], 122%.

Turning to `Clc1ccc(CCN2CN=C(SCc3ccccc3CSC3=NCN(CCc4ccc(Cl)cc4Cl)CN3)NC2)c(Cl)c1` [Compound 21, 1,2-bis(((5-(2,4-dichlorophenethyl)-1,4,5,6-tetrahydro-1,3,5-triazin-2-yl)thio)methyl)benzene], the remaining activity at 10 µM on TDO in A172 cells was -1%; in assay [1], 30%; at IDO in A431 cells it was 6%; in assay [2], 54%.

Regarding `FC(F)(F)c1ccc(CCN2CN=C(SCc3ccccc3CSC3=NCN(CCc4ccc(C(F)(F)F)cc4)CN3)NC2)cc1` [Compound 142, 1,2-Bis (((5-(4-(Trifluoromethyl)phenethyl)-1,4,5,6-tetrahydro-1,3,5-triazin-2-yl)thio)methyl)benzene], the remaining activity at 10 µM at TDO in A172 cells amounted to 6%; in assay [1], 43%; on IDO in A431 cells, 16%; in assay [2], 18%.

On to `COc1ccc(/N=C(\N)SCc2cc(Cl)c(Cl)cc2CS/C(N)=N/c2ccc(OC)cc2)cc1` [Compound 124, (4,5-Dichloro-1,2-phenylene)bis(methylene) (E,E)-bis(N′-(4-methoxyphenyl)carbamimidothioate) dihydrobromide], for which the remaining activity at 10 µM was 0% on TDO in A172 cells, -1% in assay [1], 10% at IDO in A431 cells and 20% in assay [2].

Regarding `CNC(=O)c1cccnc1CSC(=N)N` [Compound 100, (3-(Methylcarbamoyl)pyridin-2-yl)methyl carbamimidothioate hydrobromide], the remaining activity at 10 µM on TDO in A172 cells is 123%; in assay [1], 88%; at IDO in A431 cells it was 93%; in assay [2], 84%.

On to `Clc1cc(CSC2=NCN(CCC3CCCCC3)CN2)c(CSC2=NCN(CCC3CCCCC3)CN2)cc1Cl` [Compound 61, 6,6′-(((4,5-Dichloro-1,2-phenylene)bis(methylene))bis(sulfanediyl))bis(3-(2-cyclohexylethyl)-1,2,3,4-tetrahydro-1,3,5-triazine)], for which the remaining activity at 10 µM was -11% at TDO in A172 cells, 7% in assay [1], 1% at IDO in A431 cells and 4% in assay [2].

Regarding `Fc1ccc(CSC2=NCN(CCc3ccc(Cl)c(Cl)c3)CN2)c(CSC2=NCN(CCc3ccc(Cl)c(Cl)c3)CN2)c1` [Compound 133, 6,6′-(((4-Fluoro-1,2-phenylene)bis(methylene))bis(sulfanediyl))bis(3-(3,4-dichlorophenethyl)-1,2,3,4-tetrahydro-1,3,5-triazine)], the remaining activity at 10 µM came out at 6% on TDO in A172 cells, 1% in assay [1], 13% at IDO in A431 cells and 10% in assay [2].

Regarding `COC(=O)c1ccccc1CSC(=N)N` [Compound 55, Methyl 2-((carbamimidoylthio)methyl)benzoate hydrochloride], the remaining activity at 10 µM at TDO in A172 cells stood at 121%; in assay [1] it was 91%; on IDO in A431 cells it was 73%; in assay [2] it was 111%.

With `Clc1cc(CSC2=NCN(CC3CC3)CN2)c(CSC2=NCN(CC3CC3)CN2)cc1Cl` [Compound 73, 6,6′-(((4,5-Dichloro-1,2-phenylene)bis(methylene))bis(sulfanediyl))bis(3-(cyclopropylmethyl)-1,2,3,4-tetrahydro-1,3,5-triazine)], the remaining activity at 10 µM at TDO in A172 cells is -3%; at IDO in A431 cells, 4%; in assay [2], 4%. For the same compound, the remaining activity at 3 µM in assay [1] (final concentration of the compound 3 μM (data with *)) came out at 29%.

`N/C(=N\c1ccc(Br)cc1)SCc1cc(Cl)c(Cl)cc1CS/C(N)=N/c1ccc(Br)cc1` [Compound 135, (4,5-Dichloro-1,2-phenylene)bis(methylene) (E,E)-bis(N′-(4-bromophenyl)carbamimidothioate) dihydrobromide]: the remaining activity at 10 µM is 0% at TDO in A172 cells, -2% in assay [1], 12% on IDO in A431 cells and 8% in assay [2].

With `CNC(=O)Cc1ccccc1CSC(=N)N` [Compound 62, 2-(2-(Methylamino)-2-oxoethyl)benzyl carbamimidothioate hydrobromide], the remaining activity at 10 µM on TDO in A172 cells stood at 56%; in assay [1], 58%; at IDO in A431 cells, 86%; in assay [2], 21%.

Take `Cc1ccc(CCN2CN=C(SCc3ccccc3CSC3=NCN(CCc4ccc(C)c(C)c4)CN3)NC2)cc1C` [Compound 23, 1,2-bis(((5-(3,4-dimethylphenethyl)-1,4,5,6-tetrahydro-1,3,5-triazin-2-yl)thio)methyl)benzene]: the remaining activity at 10 µM was -4% on TDO in A172 cells, 18% in assay [1], 6% on IDO in A431 cells and 24% in assay [2].

In the case of `COCCNC(=O)c1ccc(Br)cc1CSC(=N)N` [Compound 115, 5-Bromo-2-((2-methoxyethyl)carbamoyl)benzyl carbamimidothioate hydrobromide], the remaining activity at 10 µM is 71% at TDO in A172 cells, 91% in assay [1], 121% at IDO in A431 cells and 63% in assay [2].

`N/C(=N\c1ccc(Cl)cc1)SCc1cc(F)c(F)cc1CS/C(N)=N/c1ccc(Cl)cc1` [Compound 132, (4,5-Difluoro-1,2-phenylene)bis(methylene) (E,E)-bis(N′-(4-chlorophenyl)carbamimidothioate) dihydrobromide]: the remaining activity at 10 µM was 5% at TDO in A172 cells, -2% in assay [1], 11% on IDO in A431 cells and 5% in assay [2].

For `COc1ccc(CN2CN=C(SCc3ccccc3CSC3=NCN(Cc4ccc(OC)cc4OC)CN3)NC2)c(OC)c1` [Compound 27, 1,2-bis(((5-(2,4-dimethoxybenzyl)-1,4,5,6-tetrahydro-1,3,5-triazin-2-yl)thio)methyl)benzene], the remaining activity at 10 µM at TDO in A172 cells is -3%; in assay [1], 33%; at IDO in A431 cells, 7%; in assay [2], 56%.

`N=C(N)SCc1sc2ccccc2c1CSC(=N)N` [Compound 151, Benzo[b]thiophene-2,3-diylbis(methylene) dicarbamimidothioate dihydrobromide]: the remaining activity at 10 µM on TDO in A172 cells stood at 76%; in assay [1], 13%; at IDO in A431 cells, 33%; in assay [2], 11%.

For `COc1ccc(/N=C(\N)SCc2ccc(F)cc2CS/C(N)=N/c2ccc(OC)cc2)cc1` [Compound 128, (4-Fluoro-1,2-phenylene)bis(methylene) (E,E)-bis(N′-(4-methoxyphenyl)carbamimidothioate) dihydrobromide], the remaining activity at 10 µM on TDO in A172 cells was 8%; in assay [1], 3%; at IDO in A431 cells, 11%; in assay [2], 14%.

(Values after patent US12209079B2 (GENERAL INCORPORATED ASSOCIATION PHARMA VALLEY PROJECT …, priority 2017, dated 2025).)
